Key:
Format in all cases: in vivo
Phytophthora infestans = details: tomatoes, preventive spray, 1 ppm a.i., evaluated 3 days after inoculation
Alternaria solani = assay: Alternaria test (tomatoes)/preventive; details: preventive spray, evaluated 3 days after inoculation
Venturia inaequalis = assay: Venturia test (apples)/preventive; details: preventive spray, evaluated 10 days after inoculation

| Structure (SMILES) | Efficacy in % found (Phytophthora infestans) [%] | Efficacy in % found (Alternaria solani; 1 ppm a.i.) [%] | Efficacy in % found (Alternaria solani; 0.5 ppm a.i.) [%] | Efficacy in % found (Venturia inaequalis; 1 ppm a.i.) [%] | Efficacy in % found (Venturia inaequalis; 0.25 ppm a.i.) [%] |
| --- | --- | --- | --- | --- | --- |
| CO/C=C(/C(=O)OC)c1ccccc1Oc1cc(Oc2ccccc2C#N)ncn1 [F107, azoxystrobin] | 61 | 39 | – | – | – |
| CSC1=N[C@@](C)(c2ccccc2)C(=O)N1Nc1ccccc1 [F114, fenamidone] | 37 | – | – | – | – |
| COC(=O)N(OC)c1ccccc1COc1ccn(-c2ccc(Cl)cc2)n1 [F121, pyraclostrobin] | – | – | 30 | 65 | – |
| CON=C(C(=O)OC)c1ccccc1CON=C(C)c1cccc(C(F)(F)F)c1 [F126, trifloxystrobin] | – | 38 | – | – | 60 |
